The values that follow come from patent US8273769B2, “Phenoxy acetic acid derivatives” (Merck Serono SA, priority 2009, dated 2012).

One assay concerns the target T1, CRTH2 (Homo sapiens, UniProt Q9Y5Y4).
T1 sequence (Q9Y5Y4 1-395): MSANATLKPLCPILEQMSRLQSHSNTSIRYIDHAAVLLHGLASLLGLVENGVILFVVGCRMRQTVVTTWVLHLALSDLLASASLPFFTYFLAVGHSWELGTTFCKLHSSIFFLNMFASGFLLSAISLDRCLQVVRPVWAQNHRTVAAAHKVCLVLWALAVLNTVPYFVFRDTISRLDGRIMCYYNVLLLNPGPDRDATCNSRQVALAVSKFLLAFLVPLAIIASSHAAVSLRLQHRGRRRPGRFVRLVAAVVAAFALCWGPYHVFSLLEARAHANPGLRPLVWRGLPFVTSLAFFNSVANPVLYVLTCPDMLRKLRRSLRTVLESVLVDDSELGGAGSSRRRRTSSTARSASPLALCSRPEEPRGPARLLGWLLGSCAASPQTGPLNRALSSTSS
Kind of assay: Radioligand binding Scintillation Proximity Assay ([3H]PGD2, hCRTH2-CHO cell membranes). On the set-up: host or cells: CHO cells. Conditions: 1.5 nM [3H]PGD2, hCRTH2-CHO cell membranes, SPA. The gist of the method:
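SPA competition binding at room temperature, 90 min with agitation: 1.5 nM [3H]PGD2, 10-50 μg/ml hCRTH2-CHO membrane protein, WGA SPA beads, HEPES pH 7.4 with 10 mM MnCl2, 1% DMSO. Non-specific binding defined with 10 μM PGD2; scintillation counting.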
As for `Cc1ccncc1C#Cc1cc(Cl)ccc1OCC(=O)O` [Example 15, {4-chloro-2-[(4-methylpyridin-3-yl)ethynyl]phenoxy}acetic acid], the half-maximal inhibitory concentration (IC50) (in general, the concentration needed to halve the response being measured) came to 30 nM.

The molecule `COc1ccc(-c2ccc(C#Cc3cc(Cl)ccc3OCC(=O)O)cc2S(C)(=O)=O)cc1` [Example 141, (4-chloro-2-{[4′-methoxy-2-(methylsulfonyl)biphenyl-4-yl]ethynyl}phenoxy)acetic acid] showed an IC50 of 8 nM.

For the molecule `COc1cccc(-c2ccc(C#Cc3cc(Cl)ccc3OCC(=O)O)cc2S(C)(=O)=O)c1` [Example 142], the concentration for half-maximal inhibition (IC50) is 9 nM.

In turn, `CS(=O)(=O)c1cc(C#Cc2cc(Cl)ccc2OCC(=O)O)ccc1-c1ccc(C(F)(F)F)cc1` [Example 143, (4-chloro-2-{[2-(methylsulfonyl)-4′-(trifluoromethyl)biphenyl-4-yl]ethynyl}phenoxy)acetic acid] yielded an IC50 of 50 nM.

On to `CS(=O)(=O)c1cc(C#Cc2cc(Cl)ccc2OCC(=O)O)ccc1-c1ccc(Cl)cc1` [Example 144, (4-chloro-2-{[4′-chloro-2-(methylsulfonyl)biphenyl-4-yl]ethynyl}phenoxy)acetic acid], for which the IC50 was 17 nM.

Take `CS(=O)(=O)c1cc(C#Cc2cc(Cl)ccc2OCC(=O)O)ccc1-c1cccc(Cl)c1` [Example 145, (4-chloro-2-{[3′-chloro-2-(methylsulfonyl)biphenyl-4-yl]ethynyl}phenoxy)acetic acid]: the IC50 was 19 nM.

For `CS(=O)(=O)c1cc(C#Cc2cc(Cl)ccc2OCC(=O)O)ccc1-c1ccccc1Cl` [Example 146, (4-chloro-2-{[2′-chloro-2-(methylsulfonyl)biphenyl-4-yl]ethynyl}phenoxy)acetic acid], the IC50 was 4 nM.

On to `O=C(O)COc1ccc2ccccc2c1C#Cc1cccc(O)c1` [Example 147, ({1-[(3-hydroxyphenyl)ethynyl]-2-naphthyl}oxy)acetic acid], for which the 50% inhibitory concentration (IC50) came out at 102 nM.

As for `CCCS(=O)(=O)c1cccc(C#Cc2c(OCC(=O)O)ccc3ccccc23)c1` [Example 148, [(1-{[3-(propylsulfonyl)phenyl]ethynyl}-2-naphthyl)oxy]acetic acid], the half-maximal inhibitory concentration (IC50) is 56 nM.

In turn, `CCC[S+]([O-])c1ccc(C)c(C#Cc2cc(Cl)ccc2OCC(=O)O)c1` (centres unmarked) [Example 149, (4-chloro-2-{[2-methyl-5-(propylsulfinyl)phenyl]ethynyl}phenoxy)acetic acid] showed a half-inhibitory concentration (IC50) of 11 nM.

`O=C(O)COc1ccc(Cl)cc1C#Cc1ccc(NC(=O)c2ccc(C(F)(F)F)cc2)cc1` [Example 150, {4-chloro-2-[(4-{[4-(trifluoromethyl)benzoyl]amino}phenyl)ethynyl]phenoxy}acetic acid] gave a 50% inhibitory concentration (IC50) of 267 nM.

For `O=C(O)COc1ccc(Cl)cc1C#Cc1ccc(NC(=O)c2ccccc2)cc1` [Example 151, (2-{[4-(benzoylamino)phenyl]ethynyl}-4-chlorophenoxy)acetic acid], the IC50 was found to be 28 nM.

The molecule `CCCS(=O)(=O)c1cc(C#Cc2cc(Cl)ccc2OCC(=O)O)c(C)cc1NC(C)=O` [Example 153, (2-{[4-(acetylamino)-2-methyl-5-(propylsulfonyl)phenyl]ethynyl}-4-chlorophenoxy)acetic acid] registered a 50% inhibitory concentration (IC50) of 1 nM.

In turn, `O=C(O)COc1ccc(Cl)cc1C#Cc1ccc2c(c1)S(=O)(=O)CC2` [Example 155, {4-chloro-2-[(1,1-dioxido-2,3-dihydro-1-benzothien-6-yl)ethynyl]phenoxy}acetic acid] displayed an IC50 of 29 nM.

In the case of `O=C(O)COc1ccc(Cl)cc1C#Cc1ccc2c(c1)S(=O)(=O)C=C2` [Example 156, {4-chloro-2-[(1,1-dioxido-1-benzothien-6-yl)ethynyl]phenoxy}acetic acid], the half-inhibitory concentration (IC50) was 32 nM.

In turn, `CC(C)(C)N1C(=O)c2ccc(C#Cc3cc(Cl)ccc3OCC(=O)O)cc2S1(=O)=O` [Example 157, {2-[(2-tert-butyl-1,1-dioxido-3-oxo-2,3-dihydro-1,2-benzisothiazol-6-yl)ethynyl]-4-chlorophenoxy}acetic acid] showed a half-maximal inhibitory concentration (IC50) of 17 nM.

In turn, `CC1(C)C(=O)c2ccc(C#Cc3cc(Cl)ccc3OCC(=O)O)cc2S1(=O)=O` [Example 158, {4-chloro-2-[(2,2-dimethyl-1,1-dioxido-3-oxo-2,3-dihydro-1-benzothien-6-yl)ethynyl]phenoxy}acetic acid] returned a 50% inhibitory concentration (IC50) of 34 nM.

With `CC1(C)C(O)c2ccc(C#Cc3cc(Cl)ccc3OCC(=O)O)cc2S1(=O)=O` (centres unmarked) [Example 159, {4-chloro-2-[(3-hydroxy-2,2-dimethyl-1,1-dioxido-2,3-dihydro-1-benzothien-6-yl)ethynyl]phenoxy}acetic acid], the IC50 is 37 nM.

The molecule `CC1(O)c2ccc(C#Cc3cc(Cl)ccc3OCC(=O)O)cc2S(=O)(=O)C1(C)C` (centres unmarked) [Example 160, {4-chloro-2-[(3-hydroxy-2,2,3-trimethyl-1,1-dioxido-2,3-dihydro-1-benzothien-6-yl)ethynyl]phenoxy}acetic acid] displayed an IC50 of 32 nM.

Take `COC1c2ccc(C#Cc3cc(Cl)ccc3OCC(=O)O)cc2S(=O)(=O)C1(C)C` (centres unmarked) [Example 161, {4-chloro-2-[(3-methoxy-2,2-dimethyl-1,1-dioxido-2,3-dihydro-1-benzothien-6-yl)ethynyl]phenoxy}acetic acid]: the half-inhibitory concentration (IC50) was 24 nM.

Molecule `CCCCN(C)C(=O)c1ccc(C#Cc2cc(Cl)ccc2OCC(=O)O)cc1S(=O)(=O)C(C)C` [Example 163, (2-{[4-{[butyl(methyl)amino]carbonyl}-3-(isopropylsulfonyl)phenyl]ethynyl}-4-chlorophenoxy)acetic acid] had an IC50 of 32 nM.

Molecule `CC(C)S(=O)(=O)c1cc(C#Cc2cc(Cl)ccc2OCC(=O)O)ccc1C(=O)N(C)C` [Example 164, (4-chloro-2-{[4-[(dimethylamino)carbonyl]-3-(isopropylsulfonyl)phenyl]ethynyl}phenoxy)acetic acid] displayed an IC50 of 75 nM.

In turn, `CCN(CC)C(=O)c1ccc(C#Cc2cc(Cl)ccc2OCC(=O)O)cc1S(=O)(=O)C(C)C` [Example 165, (4-chloro-2-{[4-[(diethylamino)carbonyl]-3-(isopropylsulfonyl)phenyl]ethynyl}phenoxy)acetic acid] showed a 50% inhibitory concentration (IC50) of 53 nM.

Take `CCCN(CC)C(=O)c1ccc(C#Cc2cc(Cl)ccc2OCC(=O)O)cc1S(=O)(=O)C(C)C` [Example 166, (4-chloro-2-{[4-{[ethyl(propyl)amino]carbonyl}-3-(isopropylsulfonyl)phenyl]ethynyl}phenoxy)acetic acid]: the IC50 turned out to be 43 nM.

`CC(C)S(=O)(=O)c1cc(C#Cc2cc(Cl)ccc2OCC(=O)O)ccc1C(=O)N1CCOCC1` [Example 167, (4-chloro-2-{[3-(isopropylsulfonyl)-4-(morpholin-4-ylcarbonyl)phenyl]ethynyl}phenoxy)acetic acid] displayed an IC50 of 100 nM.

Take `CCCS(=O)(=O)c1ccc(F)c(C#Cc2cc(Cl)ccc2OC(C)(C)C(=O)O)c1` [Example 169, 2-(4-chloro-2-{[2-fluoro-5-(propylsulfonyl)phenyl]ethynyl}phenoxy)-2-methylpropanoic acid]: the IC50 came to 287 nM.

On to `CCCS(=O)(=O)c1ccc(C)c(C#Cc2cc(Cl)ccc2OC(CC)C(=O)O)c1` (centres unmarked) [Example 170, 2-(4-chloro-2-{[2-methyl-5-(propylsulfonyl)phenyl]ethynyl}phenoxy)butanoic acid], for which the IC50 came to 35 nM.

Regarding `CCCC(Oc1ccc(Cl)cc1C#Cc1cc(S(=O)(=O)CCC)ccc1C)C(=O)O` (centres unmarked) [Example 171, 2-(4-chloro-2-{[2-methyl-5-(propylsulfonyl)phenyl]ethynyl}phenoxy)pentanoic acid], the half-inhibitory concentration (IC50) was found to be 66 nM.

Take `CCCS(=O)(=O)c1ccc(C)c(C#Cc2cc(Cl)ccc2OC(CC(C)C)C(=O)O)c1` (centres unmarked) [Example 172, 2-(4-chloro-2-{[2-methyl-5-(propylsulfonyl)phenyl]ethynyl}phenoxy)-4-methylpentanoic acid]: the 50% inhibitory concentration (IC50) was 60 nM.

The target in the next assay is T1, CRTH2. In words: Cellular Dielectric Spectroscopy (CHO-CRTH2 cells). The class given is cell-based. Also on record: expressed in transfected cells; host or cells: CHO-CRTH2 cells. Conditions: antagonist mode, fixed concentration of PGD2 (EC80). As for the experimental part:
Cellular Dielectric Spectroscopy (CDS) is a label-free technology based on the measurement of complex impedance changes (delta Z or dZ). Impedance (Z) is related to the ratio of voltage to current as described by Ohm's law (Z=V/I). In order to measure the changes in impedance that occur in response to receptor stimulation, mammalian cells are seeded onto a custom 96-well microliter plate that contains electrodes at the bottom of each well. Key contributors to the impedance measurements are changes in cell-substrate adherence, changes in cell shape and volume, and changes in cell-cell interactions. These factors individually or collectively affect the flow of current, influencing the magnitude and characteristics of the signal measured. G-protein coupled receptors ligand-induced activity can be measured using this technology and specific G protein coupling can be identified. Activities of reference agonist and antagonist molecules of CRTH2 have been measured using this assay and similar results were obtained compared to different functional assays.
CHO-CRTH2 cells are cultured in HAM's F12 (Lonza, Switzerland) supplemented with 10% foetal calf serum (PAA, Australia) and 400 μg/ml Geneticin. 100000 cells/well are seeded in standard 96W Microplates (MDS Analytical Technologies) and incubated at 37° C. in 5% CO2 for 24 hours. Cells are washed twice with 135 μl of cell key buffer (Hank's Balanced Salt Solution 1× (HBSS) (Invitrogen) supplemented with 10 mM HEPES pH 7.4 in presence of 1% DMSO). For EC50 determination. 15 μl of increasing concentration of Compounds of Formula (I) diluted in cell key buffer are added to the cells and agonist activity is then recorded for 25 minutes. […] Results are expressed as the amplitude between the highest and the lowest signal produced (max-min). Basal and maximum activities are measured, respectively in absence or presence of PGD2 (EC80).
`Cc1ccncc1C#Cc1cc(Cl)ccc1OCC(=O)O` [Example 15, {4-chloro-2-[(4-methylpyridin-3-yl)ethynyl]phenoxy}acetic acid] showed an IC50 of 74 nM.

The assay is the same for the next values; noted with them: partial agonists, agonist activity without PGD2.
Regarding `Cc1ccncc1C#Cc1cc(Cl)ccc1OCC(=O)O` [Example 15, {4-chloro-2-[(4-methylpyridin-3-yl)ethynyl]phenoxy}acetic acid], the 50% effective concentration (EC50) (as a rule, the concentration at which the effect is half-maximal) stood at 53 nM and the maximal response (Emax) (as a rule, the size of the effect at its maximum, as opposed to the concentration needed) was 46%.
